Data taken from US9988371B2, “Benzimidazole analogues and related methods” (The Arizona Board of Regents, on Behalf of the University …, priority 2014, dated 2018).

Tests used:
FYN = biological target: T1, FYN (Homo sapiens, UniProt P06241); test: KINOMEscan kinase panel; assay type: binding; details: 50 nM
T1 construct: purchased KINOMEscan
Experimental: (§1) Pz-1 was exceptionally potent on RET and all tested RET mutants including gatekeeper mutants RET/V804M at less than 1 nM (FIGS. 1-3). The RET biochemical assay described herein was not suitable to determine activity of inhibitors having an IC50 of less than 1 nM, as the concentration of the RET enzyme in the assay was 2 nM. An intermediate compound was therefore used for the kinetics studies. […] Pz-1 was screened at concentration of 50 nM against 91 kinases in KINOMEscan, representing a diversity of each Kinome cluster. The kinase assays in KINOMEScan were more sensitive than the biochemical assays described above.

GKA = test: KINOMEscan kinase panel; assay type: binding; details: 50 nM
Experimental: as §1

SRC = biological target: T2, SRC (Homo sapiens, UniProt P12931); test: KINOMEscan kinase panel; assay type: binding; details: 50 nM
T2 construct: purchased KINOMEscan
Experimental: as §1

TRKB = biological target: T3, TRKB (Homo sapiens, UniProt Q16620); test: KINOMEscan kinase panel; assay type: binding; details: 50 nM
T3 construct: purchased KINOMEscan
Experimental: as §1

TRKC = biological target: T4, TRKC (Homo sapiens, UniProt Q16288); test: KINOMEscan kinase panel; assay type: binding; details: 50 nM
T4 construct: purchased KINOMEscan
Experimental: as §1

VEGFR2 = biological target: T5, VEGFR2 (Mus musculus, UniProt P35918); test: In vivo target inhibition, pVEGFR2 in HRAS/G12V-induced tumors; set-up: species or system nude mice; details: 48 hr, 1.0 or 3.0 mg/kg daily
T5 construct: from tissue; host or cells: subcutaneous tumours (NIH3T3 RET/C634Y or NIH3T3 HRAS/G12V) in BALB/c nu/nu mice
Experimental: FIG. 9: Photographs of blots showing effects of Pz-1 on cellular phosphorylation events in tumors induced in nude mice (from FIG. 8) by injection of NIH3T3 fibroblasts transformed by RET/C634Y or HRAS/G12V. […] Some of the vehicle-treated tumors, at the end of the tumor growth experiment described in FIG. 8, were treated for 48 hr with different doses of Pz-1 (TR) or left untreated (NT). At the end of the treatment, 50 μg of tumor protein lysates were subjected to immunoblotting with anti-phospho-Y1062 (αp1062) and anti-phospho-905 (αpY905) RET antibodies, anti-phospho-MAPK (αpMAPK, T302/Y304), anti-phospho-SHC (αpSHC, Y317), anti-phospho-p70S6K (αpp70S6K, T389), anti-phospho-S6RP (αpS6RP, S235/S236), and anti-phospho-VEGFR2 (αpVEGFR2 pY1175) antibodies. The blots were normalized using anti-RET (αRET), anti-SHC (αSHC), anti-MAPK (αMAPK), anti-p70S6K (αp70S6K), anti-S6RP (αS6RP) or anti-VEGFR2 (αVEGFR2) antibodies.
Some of the vehicle-treated tumors, at the end of the tumor growth experiment reported in FIG. 8, were treated for 48 hr with different doses of Pz-1 (1.0 or 3.0 mg/kg daily) or left untreated. […]

T2 sequence (P12931 whole entry): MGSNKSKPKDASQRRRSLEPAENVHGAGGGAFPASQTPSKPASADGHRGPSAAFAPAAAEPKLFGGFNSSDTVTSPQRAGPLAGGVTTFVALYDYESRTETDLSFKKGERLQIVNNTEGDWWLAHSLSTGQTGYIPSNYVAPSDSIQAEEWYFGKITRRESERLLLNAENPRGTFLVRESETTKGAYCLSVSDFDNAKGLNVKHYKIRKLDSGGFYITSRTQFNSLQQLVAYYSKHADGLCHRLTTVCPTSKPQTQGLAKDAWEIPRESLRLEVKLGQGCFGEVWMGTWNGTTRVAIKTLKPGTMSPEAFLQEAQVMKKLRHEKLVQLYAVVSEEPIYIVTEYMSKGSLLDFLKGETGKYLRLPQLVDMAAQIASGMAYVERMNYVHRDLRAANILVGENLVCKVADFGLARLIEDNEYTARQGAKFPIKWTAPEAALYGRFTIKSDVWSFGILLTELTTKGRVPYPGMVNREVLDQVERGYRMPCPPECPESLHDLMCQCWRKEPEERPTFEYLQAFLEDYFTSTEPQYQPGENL
T4 sequence (Q16288 32-839): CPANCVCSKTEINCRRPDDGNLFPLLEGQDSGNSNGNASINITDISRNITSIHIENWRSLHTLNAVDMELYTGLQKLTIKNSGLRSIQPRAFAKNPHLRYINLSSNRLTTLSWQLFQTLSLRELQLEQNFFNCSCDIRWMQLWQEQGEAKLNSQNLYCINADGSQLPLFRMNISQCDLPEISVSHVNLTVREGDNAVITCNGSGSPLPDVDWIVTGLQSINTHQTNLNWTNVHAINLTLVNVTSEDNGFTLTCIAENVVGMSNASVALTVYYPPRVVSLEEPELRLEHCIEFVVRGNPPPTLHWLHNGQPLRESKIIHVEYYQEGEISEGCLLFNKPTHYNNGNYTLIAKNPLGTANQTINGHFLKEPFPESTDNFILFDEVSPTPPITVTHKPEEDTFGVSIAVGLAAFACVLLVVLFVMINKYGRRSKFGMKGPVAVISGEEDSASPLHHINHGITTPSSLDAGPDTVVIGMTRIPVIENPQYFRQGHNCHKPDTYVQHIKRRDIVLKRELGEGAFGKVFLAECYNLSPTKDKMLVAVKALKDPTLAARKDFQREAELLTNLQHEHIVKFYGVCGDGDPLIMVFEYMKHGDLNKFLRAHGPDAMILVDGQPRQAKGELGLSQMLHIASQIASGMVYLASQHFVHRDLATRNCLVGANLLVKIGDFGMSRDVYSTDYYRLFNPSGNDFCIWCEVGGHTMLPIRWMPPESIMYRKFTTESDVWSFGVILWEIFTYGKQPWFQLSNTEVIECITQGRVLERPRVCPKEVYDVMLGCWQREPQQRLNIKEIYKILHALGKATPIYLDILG
T3 sequence (Q16620 32-822): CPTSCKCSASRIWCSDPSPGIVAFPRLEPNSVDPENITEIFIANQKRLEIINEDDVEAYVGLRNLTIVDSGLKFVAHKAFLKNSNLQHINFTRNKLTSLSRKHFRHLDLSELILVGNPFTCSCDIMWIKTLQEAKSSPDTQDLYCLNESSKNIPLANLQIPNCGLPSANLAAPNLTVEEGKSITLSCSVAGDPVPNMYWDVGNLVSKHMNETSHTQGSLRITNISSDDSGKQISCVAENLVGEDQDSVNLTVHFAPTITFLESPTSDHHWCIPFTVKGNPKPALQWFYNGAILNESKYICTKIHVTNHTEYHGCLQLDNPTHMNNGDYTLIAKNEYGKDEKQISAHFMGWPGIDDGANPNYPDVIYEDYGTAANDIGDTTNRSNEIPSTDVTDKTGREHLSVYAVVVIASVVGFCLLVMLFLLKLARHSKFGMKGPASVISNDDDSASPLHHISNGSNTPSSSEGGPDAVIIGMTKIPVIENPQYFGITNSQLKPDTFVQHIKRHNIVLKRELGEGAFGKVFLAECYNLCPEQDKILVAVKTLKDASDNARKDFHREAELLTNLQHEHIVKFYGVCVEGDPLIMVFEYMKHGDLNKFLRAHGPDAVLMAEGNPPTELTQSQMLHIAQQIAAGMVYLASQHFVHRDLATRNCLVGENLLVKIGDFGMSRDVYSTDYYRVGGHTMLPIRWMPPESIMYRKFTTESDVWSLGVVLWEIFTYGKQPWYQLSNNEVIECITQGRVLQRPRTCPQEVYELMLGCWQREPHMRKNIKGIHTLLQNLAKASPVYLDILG
T1 sequence (P06241 whole entry): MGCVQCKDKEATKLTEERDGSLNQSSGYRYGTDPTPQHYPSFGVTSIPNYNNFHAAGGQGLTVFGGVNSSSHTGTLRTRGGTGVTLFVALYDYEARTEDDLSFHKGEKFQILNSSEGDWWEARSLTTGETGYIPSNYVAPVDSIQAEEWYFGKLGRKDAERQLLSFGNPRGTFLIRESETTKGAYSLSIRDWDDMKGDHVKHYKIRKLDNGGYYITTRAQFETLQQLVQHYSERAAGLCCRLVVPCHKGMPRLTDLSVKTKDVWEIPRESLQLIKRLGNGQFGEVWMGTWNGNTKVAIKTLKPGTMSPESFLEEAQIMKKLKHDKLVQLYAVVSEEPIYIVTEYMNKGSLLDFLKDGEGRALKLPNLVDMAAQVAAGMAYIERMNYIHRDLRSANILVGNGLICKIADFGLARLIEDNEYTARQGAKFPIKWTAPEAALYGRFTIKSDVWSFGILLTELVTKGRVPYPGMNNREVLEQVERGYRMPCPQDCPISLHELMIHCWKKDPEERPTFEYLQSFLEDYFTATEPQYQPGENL
T5 sequence (P35918 20-1345): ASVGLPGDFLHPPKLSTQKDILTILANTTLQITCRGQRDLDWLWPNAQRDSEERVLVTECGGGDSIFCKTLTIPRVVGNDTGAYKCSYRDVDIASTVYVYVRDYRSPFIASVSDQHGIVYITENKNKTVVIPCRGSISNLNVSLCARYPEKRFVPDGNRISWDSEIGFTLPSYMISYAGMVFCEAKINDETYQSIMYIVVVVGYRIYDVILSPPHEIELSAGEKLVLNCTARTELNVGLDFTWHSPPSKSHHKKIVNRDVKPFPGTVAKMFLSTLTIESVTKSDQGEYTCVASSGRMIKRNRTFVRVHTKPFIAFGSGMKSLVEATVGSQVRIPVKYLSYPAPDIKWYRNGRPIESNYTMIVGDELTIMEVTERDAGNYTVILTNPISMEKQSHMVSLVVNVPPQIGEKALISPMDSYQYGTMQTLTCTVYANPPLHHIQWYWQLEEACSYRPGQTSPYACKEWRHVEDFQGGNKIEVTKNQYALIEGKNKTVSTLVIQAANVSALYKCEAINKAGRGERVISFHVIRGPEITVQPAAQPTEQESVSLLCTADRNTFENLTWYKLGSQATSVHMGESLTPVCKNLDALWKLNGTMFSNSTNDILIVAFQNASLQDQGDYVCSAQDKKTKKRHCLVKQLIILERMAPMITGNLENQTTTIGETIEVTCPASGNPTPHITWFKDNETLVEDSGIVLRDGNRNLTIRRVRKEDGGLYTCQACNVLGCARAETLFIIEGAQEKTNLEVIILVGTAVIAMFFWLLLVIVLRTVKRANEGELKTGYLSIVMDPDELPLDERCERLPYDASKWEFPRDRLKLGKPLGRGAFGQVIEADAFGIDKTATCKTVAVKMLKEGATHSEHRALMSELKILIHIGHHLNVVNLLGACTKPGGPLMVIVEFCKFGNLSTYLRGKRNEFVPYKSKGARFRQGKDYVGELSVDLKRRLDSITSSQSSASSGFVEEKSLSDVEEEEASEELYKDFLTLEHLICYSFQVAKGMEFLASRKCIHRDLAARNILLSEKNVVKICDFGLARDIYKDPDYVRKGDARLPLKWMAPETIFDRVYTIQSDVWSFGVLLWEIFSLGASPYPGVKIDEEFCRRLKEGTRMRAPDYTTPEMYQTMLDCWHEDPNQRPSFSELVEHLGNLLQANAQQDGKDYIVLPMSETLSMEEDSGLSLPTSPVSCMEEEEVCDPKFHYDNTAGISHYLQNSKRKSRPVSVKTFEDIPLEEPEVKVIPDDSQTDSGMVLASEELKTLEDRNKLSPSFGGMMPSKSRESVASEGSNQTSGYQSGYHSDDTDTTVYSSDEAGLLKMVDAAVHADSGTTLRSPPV

Cn1cc(-c2ccc3c(c2)ncn3-c2ccc(CC(=O)Nc3cc(C(C)(C)C)on3)cc2)cn1 [Pz-1, N-(5-(tert-butyl)isoxazol-3-yl)-2-(4-(5-(1-methyl-1H-pyrazol-4-yl)-1H-benzo[d]imidazol-1-yl)phenyl)acetamide]
~90%: inhibition at 0.05 µM (FYN) | inhibition of GKA (GKA) | inhibition at 0.05 µM (SRC) | inhibition at 0.05 µM (TRKB) | inhibition at 0.05 µM (TRKC)
inhibited: pVEGFR2 in tumors (VEGFR2)
